{"source": "patent US20220249394A1", "about": "(priority 2019, published 2022)", "target": "protease K-resistance prion protein (PrP^Sc) in ScN2a cells (Mus musculus, UniProt P04925)", "format": "cell-based", "conditions": "6 mM HFIP for 24 hours, protease K 10 μg/ml 37° C. 30 minutes, Western blotting, FIG. 2 #5 to #8", "data": [{"smiles": "OC(C(F)(F)F)C(F)(F)F", "note": "[HFIP, 1,1,1,3,3,3-hexafluoro-2-propanol]", "values": [{"measurement": "resistance of prion protein to protease K", "value": "resistance to protease K was reduced"}]}]}
